Results published in ChEMBL document CHEMBL1201862, “PubChem BioAssay data set” (2004).
Values joined by “and” are separate entries in the source; they are usually repeats but may differ in a detail not shown here. Equal values may be shown once.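 96-well plates; 48 h exposure; 5 concentrations. Endpoints by linear interpolation between flanking doses. Not reached: highest tested concentration assigned. The concentration for 50% growth inhibition is given as GI50.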 Active and inactive are the calls of the source. Cut-off read from the data, not from the text of the source: active = GI50 up to about 1.1 µM and inactive = higher.

Tests used:
Assay in all cases: DTP human tumour cell line panel, 48 h
[1] = system: SK-MEL-5
[2] = system: K562
[3] = system: SNB-19
[4] = system: UACC-257
[5] = system: OVCAR-4
[6] = system: RPMI-8226
[7] = system: Malme-3M
[8] = system: HOP-92
[9] = system: EKVX
[10] = system: SN12C
[11] = system: KM12
[12] = system: SK-MEL-2
[13] = system: OVCAR-8
[14] = system: SF-539
[15] = system: ACHN
[16] = system: TK-10
[17] = system: A498
[18] = system: NCI-H226
[19] = system: HL-60
[20] = system: HCC 2998

Measured: GI50

Cc1cc(C)c(O)c(Cc2cccc(Cc3cc(C)cc(C)c3O)c2O)c1
inactive: [1] > 100 µM | [2] 35.9 µM | [3] > 100 µM | [4] > 100 µM | [5] > 100 µM | [6] > 100 µM | [7] > 100 µM | [8] > 100 µM | [9] > 100 µM | [10] > 100 µM | [11] > 100 µM | [12] > 100 µM | [13] > 100 µM | [14] > 100 µM | [15] > 100 µM | [16] > 100 µM | [17] > 100 µM

NC(=O)c1ccc[n+](C2=C([N-]S(=O)(=O)c3ccccc3)C(=O)c3ccccc3C2=O)c1
inactive: [18] 14.7 µM | [1] 5.51 µM | [2] 64.3 µM | [3] 15.8 µM | [4] 14.2 µM | [5] 1.17 µM | [6] 26.2 µM | [7] 6.22 µM | [8] 13.6 µM | [9] 14.3 µM | [19] 18.5 µM | [10] 16.9 µM | [11] 13.1 µM | [12] 12.8 µM | [13] 14.9 µM | [14] 18 µM | [15] 13.4 µM | [16] 20.4 µM | [20] 10.3 µM

O=c1[nH]nc(Cc2ccccc2)n1O
inactive: [18] > 100 µM | [1] > 100 µM | [2] > 100 µM | [3] > 100 µM | [4] > 100 µM | [5] > 100 µM | [6] > 100 µM | [7] > 100 µM | [8] > 100 µM | [9] > 100 µM | [19] > 100 µM | [10] > 100 µM | [11] > 100 µM | [12] > 10 µM | [13] > 100 µM | [14] > 100 µM | [15] > 100 µM | [16] > 100 µM | [17] > 100 µM

Cc1nn(C(=O)c2ccncc2)c2c1C(c1ccccc1O)SC(=N)N2 (stereo unspecified)
inactive: [18] > 10 µM | [1] > 10 µM | [2] > 10 µM | [3] > 10 µM | [4] > 10 µM | [5] > 10 µM | [6] > 10 µM | [7] > 10 µM | [8] > 10 µM | [9] > 10 µM | [19] > 10 µM | [10] > 10 µM | [11] > 10 µM | [12] > 10 µM | [13] > 10 µM | [14] > 10 µM | [15] > 10 µM | [16] > 10 µM | [20] > 10 µM

CCSC1=N/C(=C/c2ccccc2O)C(=O)N1
inactive: [18] 31.9 µM | [1] > 100 µM | [2] 61 µM | [3] > 100 µM | [4] > 100 µM | [6] > 100 µM | [7] > 100 µM | [8] 89.1 µM | [9] > 100 µM | [19] > 100 µM | [10] 67.1 µM | [11] 51.1 µM | [12] > 100 µM | [13] 41.9 µM | [14] 20.7 µM | [15] 39.2 µM | [20] > 100 µM

O=C1/C(=C/c2ccco2)NC(=S)N1CN1CCCCC1
inactive: [18] 54.1 µM | [1] 57.8 µM | [2] 60.1 µM | [3] 22.6 µM | [5] 13.3 µM | [6] 28.8 µM | [7] 85.5 µM | [8] > 100 µM | [9] 98.4 µM | [10] > 100 µM | [11] > 100 µM | [12] > 100 µM | [13] 43.7 µM | [15] 34 µM | [16] > 100 µM | [17] > 100 µM

CSC(=S)Nc1cc(C)ccn1
inactive: [18] > 100 µM | [1] 16.7 µM | [2] 62.5 µM | [3] > 100 µM | [4] > 100 µM | [5] 39.1 µM | [6] 97.7 µM | [7] 61.4 µM | [8] 79.3 µM | [9] > 100 µM | [19] > 100 µM | [10] 57.7 µM | [11] > 100 µM | [12] 93.5 µM | [13] > 100 µM | [14] > 100 µM | [15] 70 µM | [16] > 100 µM | [20] > 100 µM

Cn1c(=O)c2c(nc(C[N+]3([O-])CCOCC3)n2C)n(C)c1=O
inactive: [18] > 100 µM | [1] > 100 µM | [2] > 100 µM | [3] > 100 µM | [4] > 100 µM | [6] > 100 µM | [7] > 100 µM | [8] > 100 µM | [9] > 100 µM | [19] > 100 µM | [10] > 100 µM | [11] > 100 µM | [12] > 100 µM | [13] > 100 µM | [14] > 100 µM | [15] > 100 µM | [16] > 100 µM | [20] > 100 µM

COC(=O)[C@@H]1CC(C(C[N+](=O)[O-])c2ccc(O[Si](C)(C)C(C)(C)C)cc2)C(=O)N1C(=O)OC(C)(C)C (stereo partly specified)
inactive: [2] 22.9 µM and 32.4 µM | [3] > 100 µM | [4] > 100 µM and 88.7 µM | [5] 53.6 µM and 29.6 µM | [7] > 100 µM and 97.9 µM | [8] 40.1 µM and 61 µM | [9] > 100 µM and 61.5 µM | [10] 43.6 µM and 69.8 µM | [11] > 100 µM and 76.6 µM | [12] > 100 µM | [13] > 100 µM | [14] > 100 µM | [16] > 100 µM | [17] > 100 µM

O=C(CCC(=O)Nc1cccc(Cl)c1)CC(=O)c1ccc(F)cc1
inactive: [18] > 100 µM | [2] > 100 µM | [3] > 100 µM | [4] > 100 µM | [5] > 100 µM | [6] > 100 µM | [7] > 100 µM | [8] > 100 µM | [19] > 100 µM | [10] > 100 µM | [11] > 100 µM | [12] > 100 µM | [13] > 100 µM | [14] > 100 µM | [15] > 100 µM | [16] > 100 µM | [20] > 100 µM

C#CCOC(=O)C(N)CS (stereo unspecified)
inactive: [18] > 100 µM | [1] > 100 µM | [2] > 100 µM | [4] > 100 µM | [6] > 100 µM | [7] > 100 µM | [8] > 100 µM | [9] > 100 µM | [19] > 100 µM | [10] > 100 µM | [11] > 100 µM | [12] > 100 µM | [13] > 100 µM | [15] > 100 µM | [16] > 100 µM | [17] > 100 µM
